Laboratory results as given in patent publication US8168199B2, “Dipeptidyl peptidase IV inhibitors for the treatment of schizophrenia and depression” (priority 2000, dated 2012).

Tested on: Male WistarF/Han (WF) rats
Assay: 1 h food-intake with Y1R antagonist BIBP3226, P32/98 and NPY (Example 4)
Assay type: in vivo, rat
Details: i.c.v. 50 nmol
Protocol: Animals. Male WistarF/Han (WF) rats (Central Animal Laboratory, Hannover Medical School, Hannover, Germany, weighing 330±31 g±SD, were housed in a sound-proof, temperature controlled (24.0±0.5° C.) room under specific pathogen free conditions with a 12/12 h dark/light cycle (lights on at 07.00 with illumination level of 80 Lux). Food (Altromin lab chow pellets) and tap water were available ad libitum. Under ketamine/xylasine (100/5 mg/kg, i.p.) anesthesia, the rats were fixed in a Kopf stereotaxic frame and implanted with cannulae (Plastic One, Inc., Roanoke, Va., USA) above the lateral ventricle. All research and animal care procedures were approved by the Lower Saxony district government (Hannover, Germany) and followed principles described in the European Community's Council Directive of 24 Nov. 1986 (86/609/EEC).
Surgery and i.c.v. application. […]
Animals were randomly divided into eight experimental groups (n=6-8/group), which completed one SI test of anxiety: (1) aCSF+aCSF+aCSF; (2) BIBP+aCSF+aCSF; (3) aCSF+P32/98+aCSF; (4) BIBP+P32/98+aCSF; (5) aCSF+aCSF+NPY; (6) BIBP+aCSF+NPY; (7) aCSF+[…]+NPY; (8) BIBP+P32/98+NPY. […] The time spent in active social interaction (SI-time), 1 h, and 12 h food-intake were measured. […]
Statistical analysis. Data obtained from the measures SI time and 1 h food intake were analyzed by one-way (factor: “treatment”) ANOVA. […]

## CC[C@H](C)[C@H](N)C(=O)N1CCSC1 [P32/98]
  1 h food-intake, P32/98 alone: non-significant slight increase of feeding
